Source: US8598342B2, “Methods and compounds for antimicrobial intervention” (President and Fellows of Harvard College, priority 2008, dated 2013)

How the values were obtained:
B. subtilis 168 = experiment: MIC panel of Gram-positive strains: B. subtilis 168; type: cell-based, Bacillus subtilis
Method: (A) Targocil MIC data for a panel of Gram-positive strains, including MRSA clinical isolates B5271 and 5340A. Growth was monitored in triplicate after 12 h at 28° C. using optical density. (B) Two dimensional drug interaction analysis between tunicamycin and targocil grown for 18 h at 30° C. […] At higher concentrations, tunicamycin is toxic because it inhibits cell wall biosynthesis. […] Varying concentrations of drug were added to […] of S. aureus RN4220 after 5 h and cell count was monitored over time at 30° C. […] Cells were grown at 28° C. for 12 h and monitored for growth using optical density (OD600). Data were normalized to the DMSO controls for each strain. (E) Two classes of mutants were examined: phage resistant (m1 3) and phage sensitive (m4-5).

S. aureus TarB = target: T1, S. aureus TarB (Staphylococcus aureus, UniProt Q2G2X4); experiment: In vitro enzyme inhibition assay, TarB (radiometric); type: biochemical; conditions: targocil 50 μg/mL; enzyme 200 nM
T1 construct: made in house
T1 sequence (Q2G2X4 1-367): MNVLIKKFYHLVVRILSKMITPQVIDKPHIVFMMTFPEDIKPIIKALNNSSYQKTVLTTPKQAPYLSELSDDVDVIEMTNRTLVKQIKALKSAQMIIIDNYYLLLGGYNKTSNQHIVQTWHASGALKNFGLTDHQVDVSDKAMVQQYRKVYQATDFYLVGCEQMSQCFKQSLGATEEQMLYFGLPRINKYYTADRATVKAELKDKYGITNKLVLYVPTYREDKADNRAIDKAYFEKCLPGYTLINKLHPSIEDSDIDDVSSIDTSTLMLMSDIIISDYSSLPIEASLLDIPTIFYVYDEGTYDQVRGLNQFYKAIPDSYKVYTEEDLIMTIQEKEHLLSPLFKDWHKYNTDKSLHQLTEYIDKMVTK
Method: (§1) S. aureus TarB, D, F, I, and L were cloned, overexpressed and purified as described previously (S. Brown, Y. H. Zhang, S. Walker, Chemistry & Biology 15, 12, Jan. 2008.) Radiometric in vitro assays were run to test the inhibitory effects of targocil on Tar B, D, F, and L, while TarI was assayed for targocil inhibition using an HPLC assay using conditions similar to those previously reported (ibid). See below for exact reaction conditions. […] In each case, a reaction with no targocil served as a negative control (active enzymatic reaction) and a reaction with heat-treated enzyme served as a positive control (no enzymatic reaction). Targocil was incubated with all reaction components except the substrates at room temperature. After 10 minutes, substrates were added and the reactions were allowed to proceed for 60 minutes. The reactions were quenched with DMF and the products were imaged/monitored as previously described (ibid).

S. aureus TarJ = target: T2, S. aureus TarJ (Staphylococcus aureus, UniProt Q2G1B9); experiment: In vitro enzyme inhibition assay, TarJ; type: biochemical; conditions: targocil 50 μg/mL
T2 sequence (Q2G1B9 1-341): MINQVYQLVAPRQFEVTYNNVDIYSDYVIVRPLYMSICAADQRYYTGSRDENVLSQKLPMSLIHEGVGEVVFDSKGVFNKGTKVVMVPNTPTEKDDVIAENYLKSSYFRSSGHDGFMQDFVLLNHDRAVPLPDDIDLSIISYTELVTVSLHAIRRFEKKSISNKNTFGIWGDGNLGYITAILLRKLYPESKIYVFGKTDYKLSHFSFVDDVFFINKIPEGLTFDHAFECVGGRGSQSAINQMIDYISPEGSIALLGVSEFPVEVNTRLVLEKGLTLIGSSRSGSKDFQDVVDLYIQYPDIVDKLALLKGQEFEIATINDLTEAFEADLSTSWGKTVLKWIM

S. aureus TarL = target: T3, S. aureus TarL (Staphylococcus aureus, UniProt Q2G1B8); experiment: In vitro enzyme inhibition assay, TarL (radiometric); type: biochemical; conditions: targocil 50 μg/mL; enzyme 200 nM
T3 construct: made in house
T3 sequence (Q2G1B8 1-562): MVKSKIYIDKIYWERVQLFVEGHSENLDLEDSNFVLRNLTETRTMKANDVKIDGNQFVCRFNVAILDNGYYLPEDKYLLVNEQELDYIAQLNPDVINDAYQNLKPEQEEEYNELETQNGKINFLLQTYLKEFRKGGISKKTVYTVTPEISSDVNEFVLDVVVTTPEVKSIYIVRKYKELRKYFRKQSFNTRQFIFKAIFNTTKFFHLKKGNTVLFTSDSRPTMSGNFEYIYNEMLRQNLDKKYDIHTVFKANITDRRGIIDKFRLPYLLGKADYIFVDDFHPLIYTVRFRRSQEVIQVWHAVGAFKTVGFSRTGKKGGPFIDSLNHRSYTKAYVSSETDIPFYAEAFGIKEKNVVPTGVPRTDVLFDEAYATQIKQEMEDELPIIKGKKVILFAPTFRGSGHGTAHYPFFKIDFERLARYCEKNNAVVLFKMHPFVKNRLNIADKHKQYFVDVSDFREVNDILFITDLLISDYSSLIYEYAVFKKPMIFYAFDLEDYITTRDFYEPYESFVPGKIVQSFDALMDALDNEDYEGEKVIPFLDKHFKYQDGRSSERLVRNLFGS
Method: (A) TarL reaction with heat-treated enzyme; (B) TarL reaction with active enzyme; (C) TarL reaction with 5 μM targocil; (D) TarL reaction with 50 μM targocil; (E) TarL reaction with 100 μM targocil.
as §1
TarL in vitro inhibition assay protocol and data. Each 3 μL reaction contained 1 μM [14C] (GroP)2-ManNAc-β-(1,4)-GlcNAc-pp-farnesyl, 50 μM CDP-ribitol, 20 mM Tris base pH 7.5, 100 mM NaCl, 10 mM MgCl2, 200 nM TarL and either 5, 50, or 100 μM targocil. […]

SMILES: CCN(CC)c1nc2c(S(=O)(=O)c3ccccc3)nnn2c2ccc(Cl)cc12 [7-chloro-N,N-diethyl-3-(phenylsulfonyl)-[1,2,3]triazolo[1,5-a]quinazolin-5-amine]
- susceptibility of B. subtilis 168 (B. subtilis 168): targocil resistance in B. subtilis 168
- inhibition of TarB (S. aureus TarB): None of these enzymes was inhibited
- inhibition of TarJ (S. aureus TarJ): None of these enzymes was inhibited
- inhibition of TarL (S. aureus TarL): None of these enzymes was inhibited
